Reference: US10045983B2, “Heteroaryl pyridone and aza-pyrodine compounds” (Genentech, Inc., priority 2011, dated 2018)

test: CD69 Whole Blood Assay (CD69 Hu Blood FACS); assay type: cell-based, human; conditions: Lymphocyte; human whole blood, anti-IgM activated B lymphocytes, FACS; IC70; Table 1; read-out: CD69 Hu Blood FACS IC70
How it was run: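 Human whole blood stimulated by crosslinking surface IgM with goat F(ab′)2 anti-human IgM; inhibition of CD69 expression on B lymphocytes measured by flow cytometry.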

Q: Which IC70 does the source give for `Cn1cc(-c2ccnc(N3CCn4c5c(c(F)c4C3=O)CCCC5)c2CO)nc(Nc2cccnc2)c1=O` [Example 186, 10-fluoro-2-(3-(hydroxymethyl)-4-(4-methyl-5-oxo-6-(pyridin-3-ylamino)-4,5-dihydropyrazin-2-yl)pyridin-2-yl)-3,4,6,7,8,9-hexahydropyrazino[1,2-a]indol-1(2H)-one] here?
A: 1600 nM

Q: Which IC70 does the source give for `Cn1cc(-c2ccnc(N3CCc4c(sc5c4CCCC5)C3=O)c2CO)cc(Nc2ccc(N3CCN(C4COC4)CC3)cn2)c1=O` [Example 169, 2-{3′-Hydroxymethyl-1-methyl-5-[5-(4-oxetan-3-yl-piperazin-1-yl)-pyridin-2-ylamino]-6-oxo-1,6-dihydro-[3,4′]bipyridinyl-2′-yl}-3,4,5,6,7,8-hexahydro-2H-benzo[4,5]thieno[2,3-c]pyridin-1-one] here?
A: 206 nM

Q: With `CN1CCN(C)[C@H](c2ccc(Nc3nc(-c4ccnc(N5CCn6c(cc7c6CCCC7)C5=O)c4CO)cn(C)c3=O)cc2)C1=O` [Example 114, (R)-2-(4-(6-(4-(1,4-dimethyl-3-oxopiperazin-2-yl)phenylamino)-4-methyl-5-oxo-4,5-dihydropyrazin-2-yl)-3-(hydroxymethyl)pyridin-2-yl)-3,4,6,7,8,9-hexahydropyrazino[1,2-a]indol-1(2H)-one] as the compound, how does the IC70 read?
A: 80.2 nM

Q: Which IC70 does the source give for `Cc1cc(Nc2cc(-c3ccnc(N4CCn5c(cc6c5CC(C)(C)C6)C4=O)c3CO)cn(C)c2=O)nc(C)n1` [Example 173, 2-[5-(2,6-Dimethyl-pyrimidin-4-ylamino)-3′-hydroxymethyl-1-methyl-6-oxo-1,6-dihydro-[3,4′]bipyridinyl-2′-yl]-7,7-dimethyl-3,4,7,8-tetrahydro-2H,6H-cyclopenta[4,5]pyrrolo[1,2-a]pyrazin-1-one] here?
A: 1000 nM

Q: With `Cn1cc(-c2ccnc(N3CCn4c(cc5c4CC(C)(C)C5)C3=O)c2CO)cc(Nc2ccc(N3CCN(C4COC4)CC3)cn2)c1=O` [Example 108, 2-(3-(Hydroxymethyl)-4-(1-methyl-5-(5-(4-(oxetan-3-yl)piperazin-1-yl)pyridin-2-ylamino)-6-oxo-1,6-dihydropyridin-3-yl)pyridin-2-yl)-4,4-dimethyl-1,10-diazatricyclo[6.4.0.0^2,6]dodeca-2(6),7-dien-9-one] as the compound, how does the IC70 read?
A: 31.9 nM

Q: Which IC70 does the source give for `C[C@@H]1CN(C2COC2)CCN1c1ccc(Nc2cc(-c3ccnc(-n4ccn5c6c(cc5c4=O)CCCC6)c3CO)cn(C)c2=O)nc1` [Example 151, 2-{3′-Hydroxymethyl-1-methyl-5-[5-((R)-2-methyl-4-oxetan-3-yl-piperazin-1-yl)-pyridin-2-ylamino]-6-oxo-1,6-dihydro-[3,4′]bipyridinyl-2′-yl}-6,7,8,9-tetrahydro-2H-pyrazino[1,2-a]indol-1-one] here?
A: 45.5 nM

Q: Which IC70 does the source give for `C[C@H]1CN(C2COC2)CCN1c1ccc(Nc2cc(-c3ccnc(N4CCc5c(sc6c5CC(C)(C)C6)C4=O)c3CO)cn(C)c2=O)nc1` [Example 145, 6-{3′-Hydroxymethyl-1-methyl-5-[5-((S)-2-methyl-4-oxetan-3-yl-piperazin-1-yl)-pyridin-2-ylamino]-6-oxo-1,6-dihydro-[3,4′]bipyridinyl-2′-yl}-2,2-dimethyl-2,3,5,6-tetrahydro-1H,4H-8-thia-6-aza-cyclopenta[a]inden-7-one] here?
A: 14.7 nM

same assay, conditions: Lymphocyte; human whole blood, anti-IgM activated B lymphocytes, FACS; IC70; Table 2 (unit inferred); read-out: CD69 Hu Blood FACS (IC70)

Q: For `COCCN1CCn2nc(Nc3cc(-c4cncc(N5CCn6c(cc7c6CC(C)(C)C7)C5=O)c4CO)cn(C)c3=O)cc2C1` [Example 328, 3-[4-(hydroxymethyl)-5-[5-[[5-(2-methoxyethyl)-6,7-dihydro-4H-pyrazolo[1,5-a]pyrazin-2-yl]amino]-1-methyl-6-oxo-3-pyridyl]-3-pyridyl]-7,7-dimethyl-1,2,6,8-tetrahydrocyclopenta[3,4]pyrrolo[3,5-b]pyrazin-4-one], which IC70 is on record?
A: 12.4 nM

Q: Which IC70 does the source give for `COCCN1CCN(c2ccc(Nc3cc(-c4ccnc(N5CCn6c(cc7c6CC(C)(C)C7)C5=O)c4CO)cn(C)c3=O)nc2)CC1` [Example 339, 3-[3-(hydroxymethyl)-4-[5-[[5-[4-(2-methoxyethyl)piperazin-1-yl]-2-pyridyl]amino]-1-methyl-6-oxo-3-pyridyl]-2-pyridyl]-7,7-dimethyl-1,2,6,8-tetrahydrocyclopenta[3,4]pyrrolo[3,5-b]pyrazin-4-one] here?
A: 53.5 nM

Q: Which IC70 does the source give for `COCCN1CCn2nc(Nc3cc(-c4nccc(N5CCn6c(cc7c6CC(C)(C)C7)C5=O)c4CO)cn(C)c3=O)cc2C1` [Example 329, 3-[3-(hydroxymethyl)-2-[5-[[5-(2-methoxyethyl)-6,7-dihydro-4H-pyrazolo[1,5-a]pyrazin-2-yl]amino]-1-methyl-6-oxo-3-pyridyl]-4-pyridyl]-7,7-dimethyl-1,2,6,8-tetrahydrocyclopenta[3,4]pyrrolo[3,5-b]pyrazin-4-one] here?
A: 110 nM

Q: With `Cc1cnc(Nc2cc(-c3ccnc(N4CCn5c(cc6c5CC(C)(C)C6)C4=O)c3CO)cn(C)c2=O)cn1` [Example 274, 3-[3-(hydroxymethyl)-4-[1-methyl-5-[(5-methylpyrazin-2-yl)amino]-6-oxo-3-pyridyl]-2-pyridyl]-7,7-dimethyl-1,2,6,8-tetrahydrocyclopenta[3,4]pyrrolo[3,5-b]pyrazin-4-one] as the compound, how does the IC70 read?
A: 466 nM

Q: For `Cn1cc(-c2ccnc(N3CCn4c(cc5c4CC(C)(C)C5)C3=O)c2CO)cc(Nc2nc3c(s2)COCC3)c1=O` [Example 214, 3-[4-[5-(6,7-dihydro-4H-pyrano[4,3-d]thiazol-2-ylamino)-1-methyl-6-oxo-3-pyridyl]-3-(hydroxymethyl)-2-pyridyl]-7,7-dimethyl-1,2,6,8-tetrahydrocyclopenta[3,4]pyrrolo[3,5-b]pyrazin-4-one], which IC70 is on record?
A: 124 nM

Q: With `Cc1nccc(Nc2cc(-c3ccnc(N4CCn5c(cc6c5CC(C)(C)C6)C4=O)c3CO)nn(C)c2=O)n1` [Example 225, 3-[3-(hydroxymethyl)-4-[1-methyl-5-[(2-methylpyrimidin-4-yl)amino]-6-oxo-pyridazin-3-yl]-2-pyridyl]-7,7-dimethyl-1,2,6,8-tetrahydrocyclopenta[3,4]pyrrolo[3,5-b]pyrazin-4-one] as the compound, how does the IC70 read?
A: 766 nM

Q: With `COc1ccc(Nc2cc(-c3ccnc(N4CCn5c(cc6c5CC(C)(C)C6)C4=O)c3CO)cn(C)c2=O)nn1` [Example 306, 3-[3-(hydroxymethyl)-4-[5-[(6-methoxypyridazin-3-yl)amino]-1-methyl-6-oxo-3-pyridyl]-2-pyridyl]-7,7-dimethyl-1,2,6,8-tetrahydrocyclopenta[3,4]pyrrolo[3,5-b]pyrazin-4-one] as the compound, how does the IC70 read?
A: 602 nM

Q: For `C[C@@H]1c2cc(Nc3cc(-c4ccnc(N5CCn6c(cc7c6CC(C)(C)C7)C5=O)c4CO)cn(C)c3=O)nn2CCN1C` [Example 318, (R)-2-(5-((4,5-dimethyl-4,5,6,7-tetrahydropyrazolo[1,5-a]pyrazin-2-yl)amino)-3′-(hydroxymethyl)-1-methyl-6-oxo-1,6-dihydro-[3,4′-bipyridin]-2′-yl)-7,7-dimethyl-2,3,4,6,7,8-hexahydro-1H-cyclopenta[4,5]pyrrolo[1,2-a]pyrazin-1-one], which IC70 is on record?
A: 108 nM

Q: For `Cc1cc(Nc2cc(-c3ccnc(N4CCn5c(cc6c5CC(C)(C)C6)C4=O)c3CO)cn(C)c2=O)ns1` [Example 310, 3-[3-(hydroxymethyl)-4-[1-methyl-5-[(5-methylisothiazol-3-yl)amino]-6-oxo-3-pyridyl]-2-pyridyl]-7,7-dimethyl-1,2,6,8-tetrahydrocyclopenta[3,4]pyrrolo[3,5-b]pyrazin-4-one], which IC70 is on record?
A: 119 nM

Q: Which IC70 does the source give for `C[C@H]1CN(C2COC2)CCN1c1ccc(Nc2cc(-c3ccnc(-n4ncc5c6n(cc5c4=O)CCCC6)c3CO)cn(C)c2=O)nc1` [Example 192, 3-[3-(hydroxymethyl)-4-[1-methyl-5-[[5-[(2S)-2-methyl-4-(oxetan-3-yl)piperazin-1-yl]-2-pyridyl]amino]-6-oxo-3-pyridyl]-2-pyridyl]-7,8,9,10-tetrahydropyridazino[4,5-a]indolizin-4-one] here?
A: 1100 nM

Q: With `CN1CCC(c2ccc(Nc3cc(-c4ccnc(N5CCn6c(cc7c6CCCC7)C5=O)c4CO)cn(C)c3=O)nc2)CC1` [Example 232, 2-[3-(hydroxymethyl)-4-[1-methyl-5-[[5-(1-methyl-4-piperidyl)-2-pyridyl]amino]-6-oxo-3-pyridyl]-2-pyridyl]-3,4,6,7,8,9-hexahydropyrazino[1,2-a]indol-1-one] as the compound, how does the IC70 read?
A: 51.8 nM

Q: Which IC70 does the source give for `CCc1cc(Nc2cc(-c3ccnc(N4CCn5c(cc6c5CC(C)(C)C6)C4=O)c3CO)cn(C)c2=O)no1` [Example 295, 3-[4-[5-[(5-ethylisoxazol-3-yl)amino]-1-methyl-6-oxo-3-pyridyl]-3-(hydroxymethyl)-2-pyridyl]-7,7-dimethyl-1,2,6,8-tetrahydrocyclopenta[3,4]pyrrolo[3,5-b]pyrazin-4-one] here?
A: 134 nM

Q: For `Cn1cc(-c2ccnc(N3CCn4c(cc5c4CC(C)(C)C5)C3=O)c2CO)cc(Nc2ccon2)c1=O` [Example 286, 3-[3-(hydroxymethyl)-4-[5-(isoxazol-3-ylamino)-1-methyl-6-oxo-3-pyridyl]-2-pyridyl]-7,7-dimethyl-1,2,6,8-tetrahydrocyclopenta[3,4]pyrrolo[3,5-b]pyrazin-4-one], which IC70 is on record?
A: 167 nM

Q: With `Cc1cc(Nc2cc(-c3ccnc(-n4ncc5c6c(sc5c4=O)CC(C)(C)C6)c3CO)cn(C)c2=O)no1` [Example 288, 3-[3-(hydroxymethyl)-4-[1-methyl-5-[(5-methylisoxazol-3-yl)amino]-6-oxo-3-pyridyl]-2-pyridyl]-7,7-dimethyl-6,8-dihydrocyclopenta[3,4]thieno[1,3-d]pyridazin-4-one] as the compound, how does the IC70 read?
A: 229 nM

Q: Which IC70 does the source give for `C[C@@H]1COC[C@H](C)N1C(=O)c1ccc(Nc2cc(-c3ccnc(N4CCn5c(cc6c5CC(C)(C)C6)C4=O)c3CO)nn(C)c2=O)nc1` [Example 321, 3-[4-[5-[[5-[(3 S,5R)-3,5-dimethylmorpholine-4-carbonyl]-2-pyridyl]amino]-1-methyl-6-oxo-pyridazin-3-yl]-3-(hydroxymethyl)-2-pyridyl]-7,7-dimethyl-1,2,6,8-tetrahydrocyclopenta[3,4]pyrrolo[3,5-b]pyrazin-4-one] here?
A: 112 nM

Q: Which IC70 does the source give for `Cn1cc(-c2ccnc(N3CCn4c(cc5c4CC(C)(C)C5)C3=O)c2CO)cc(Nc2ccccn2)c1=O` [Example 273, 3-[3-(hydroxymethyl)-4-[1-methyl-6-oxo-5-(2-pyridylamino)-3-pyridyl]-2-pyridyl]-7,7-dimethyl-1,2,6,8-tetrahydrocyclopenta[3,4]pyrrolo[3,5-b]pyrazin-4-one] here?
A: 299 nM
